Read-outs that look alike come from different tables or passages of the source.
Experiments:
[1] = molecular target: recombinant HIV-1 protease (Human immunodeficiency virus type 1 group M subtype B (isolate HXB2) (HIV-1), UniProt P04585); experiment: Enzyme inhibition of purified HIV-1 protease (SensoLyte 520 HIV-Protease Assay Kit); type: biochemical; conditions: read-out: IC50 ± SD
Experimental: Protease inhibitors (PI) are used to treat HIV infection by preventing viral assembly and maturation through the inhibition of HIV-1 protease activity. Biochemical assays were performed to evaluate the potential of PEG-PI conjugates to inhibit HIV-1 protease activity, relative to their respective PI parent molecules. Activity assays were performed at using the SensoLyte 520 HIV-Protease Assay Kit (Anaspec Inc., San Jose, Calif.) and recombinant HIV-1 protease. Protease activity was monitored by the formation of a fluorescent reporter product generated during HIV-1 protease-mediated digestion of a quenched, fluorimetric substrate containing the p17/p24 Pr^gag cleavage site.

HIV-1RF = experiment: Anti-HIV cytoprotection in CEM-SS cells infected with HIV-1RF (XTT); type: cell-based; conditions: six days, XTT; read-out: CEM-SS/HIV-1RF EC50 ± SD
Experimental: (§1) To evaluate whether conjugated protease inhibitors retain the ability to protect against HIV-1 infection, CEM-SS cells infected with the RF strain of HIV-1 were treated with test compounds for six days, and then cell viability was monitored using the tetrazolium dye XTT. […] A value for Therapeutic Index (TI) was calculated as TC50/EC50.

CEM-SS cells = test system: CEM-SS cells
Experimental: as §1

human plasma proteins = experiment: Plasma protein binding by equilibrium dialysis, human plasma; type: in vitro ADME; conditions: human plasma, 5 μM, fraction unbound
Experimental: In assays to estimate binding of test compounds to plasma proteins, test compound solutions (5 μM) are prepared in buffer and species-specific plasma (final DMSO concentration 0.5%). The plasma-containing solution is added to one side of the membrane of an equilibrium dialysis system, and the plasma-free is added to the other side. Dialysis was allowed to reach equilibrium by incubation for two hours at 37° C. The concentration of compound on both sides of the membrane was measured using LC-MS/MS.

[2] = test system: human liver microsomal proteins; experiment: Microsomal protein binding by equilibrium dialysis; type: in vitro ADME; conditions: human liver microsomes, 3 μM, fraction unbound
Experimental: PEGylated protease inhibitors were evaluated for their propensity to be bound by proteins in normal human plasma or in human liver microsome preparations using equilibrium dialysis analysis. For microsomal protein binding, test compound (final concentration=3 μM) was diluted into either buffer alone or buffer containing human liver microsomes. The protein-free and microsome-containing solutions were then added to either side of an equilibrium dialysis system and allowed to reach equilibrium at 37° C. The concentration of compound on both sides of the membrane at equilibrium was quantified by LC-MS/MS, and the fraction of compound that remains unbound (Fu) is calculated.

PBMCs [3] = experiment: PBMC cytotoxicity (XTT); type: cell-based, human; conditions: 7 days
Experimental: Mononuclear cells were isolated from fresh human peripheral blood cells by Ficoll-Hypaque density gradient by centrifugation at 600 g for 30 minutes. Banded peripheral blood mononuclear cells (PBMCs) were aspirated from the resulting interface and washed with phosphate buffered saline by low speed centrifugation. Cell viability was evaluated by Trypan Blue dye exclusion. […] Plates were incubated at 37° C., 5% CO2 for 7 days prior to cytotoxicity evaluation. XTT measurement for cytotoxicity.

PBMCs [4] = experiment: PBMC macromolecule synthesis (tritiated precursor incorporation); type: cell-based, human; conditions: for Thymidine Incorporation (PBMC) TC50: DNA synthesis; for Uridine Incorporation (PBMC) TC50: RNA synthesis; for Leucine Incorporation (PBMC) TC50: protein synthesis
Experimental: Cellular macromolecule synthesis was evaluated using tritiated precursor incorporation assays. PBMCs (5×10^4 cells/well) were cultured in the presence or absence of test compound for 7 days at 37 C, 5% CO2 in a 96-well microtiter plate. On day 6 of the incubation, 1 uCi of [methyl-3H]-thymidine for DNA synthesis, [5-3H]-uridine for RNA synthesis, or [3,4,5-3H]-leucine for protein synthesis was added to compound-treated cells, and the plate was further incubated for 16 hours. The cells were transferred to a glass fiber filtermat using an Inotech cell harvester. The filtermats were washed with distilled water then sealed in a bag with scintillation fluid. Incorporated radioactivity was measured using a Wallac scintillation counter.

Caco-2 cells = experiment: Bi-directional permeability in Caco-2 monolayers; conditions: for Efflux ratio (B→A/A→B): Caco-2 monolayers; for A→B, ×10^−6: human, Caco-2
Experimental: Absorption properties of various compounds were measured using bi-directional permeability assays in Caco-2 cells. […] The efflux ratio is calculated as the ratio of the Papp(B→A)/Papp(A→B).

human hepatocytes = experiment: Metabolic stability in cryopreserved human hepatocytes; conditions: human hepatocytes, 3 uM, incubated up to one hour
Experimental: Metabolism of PI conjugates was investigated by monitoring the levels of unmetabolized parent compound following incubation with cryopreserved human or monkey hepatocytes. The use of whole hepatocytes rather than microsomes requires that the drugs cross the cell membrane to interact with intracellularly-localized metabolic enzymes, and thus provides the most relevant in vitro system for understanding overall metabolic stability of these compounds.
Test compounds (0.1 μM or 3 μM, as indicated) are incubated with cryopreserved human hepatocytes at a cell density of 0.5×10^6 viable cells/mL. […] Duplicate samples (50 μL) are removed from the incubation mixture at various timepoints up to four hours (for 0.1 μM test compound concentration), or one or two hours (for 3 μM test compound concentration), and the reaction is quenched by the addition of methanol containing internal standard (100 μL). The samples are centrifuged (2500 rpm at 4° C. for 20 min), and the supernatants at each time point pooled for cassette analysis by LC-MS/MS.

CYP3A4 = CYP3A4 (Homo sapiens (Human), UniProt P08684); experiment: CYP450 inhibition in human liver microsomes: CYP3A4;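 further: incubation at 37 °C started by adding 1 mM NADPH, with formation of the probe metabolite measured via LC-MS/MS or fluorescent detection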
[5] = read-out: CYP3A4 IC50 Midazolam, probe substrate midazolam
[6] = read-out: CYP3A4 IC50 Testosterone, probe substrate testosterone

Sequence of CYP3A4 (P08684 whole entry): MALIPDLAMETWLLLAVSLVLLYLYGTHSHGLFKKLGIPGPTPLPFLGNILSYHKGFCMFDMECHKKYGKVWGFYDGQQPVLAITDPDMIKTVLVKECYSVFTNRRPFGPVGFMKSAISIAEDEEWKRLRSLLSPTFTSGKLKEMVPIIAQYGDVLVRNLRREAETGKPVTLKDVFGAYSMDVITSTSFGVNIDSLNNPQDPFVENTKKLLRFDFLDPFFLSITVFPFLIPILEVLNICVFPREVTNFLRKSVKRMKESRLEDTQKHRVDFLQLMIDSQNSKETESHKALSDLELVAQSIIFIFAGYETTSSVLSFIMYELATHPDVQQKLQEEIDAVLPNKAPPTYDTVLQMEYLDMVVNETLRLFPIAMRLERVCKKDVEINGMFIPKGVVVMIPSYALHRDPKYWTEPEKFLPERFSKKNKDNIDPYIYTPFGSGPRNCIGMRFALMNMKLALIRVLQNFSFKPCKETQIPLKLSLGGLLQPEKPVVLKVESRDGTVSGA

Row | Molecule | IC50 [1] [nM] | EC50 (HIV-1RF) [nM] | CEM-SS TC50 ± SD (CEM-SS cells; absence of viral infection) [nM] | Plasma Protein Binding Fu ± SD (human plasma proteins) | Microsomal Protein Binding Fu ± SD [2] | XTT (PBMC) TC50 (PBMCs [3]) [%] | Thymidine Incorporation (PBMC) TC50 (PBMCs [4]) [%] | Uridine Incorporation (PBMC) TC50 (PBMCs [4]) [%] | Leucine Incorporation (PBMC) TC50 (PBMCs [4]) [%] | CEM-SS TC50 ± SD (CEM-SS cells) [nM] | Efflux ratio (B→A/A→B) (Caco-2 cells) | A→B, ×10^−6 (Caco-2 cells) [cm/s] | CLint ± SEM (human hepatocytes) [μL/min/10^6 cells] | IC50 (CYP3A4; [5]) [nM] | IC50 (CYP3A4; [6]) [nM]
1 | CCC(C1=C(O)CC(CCCNC(=O)OC)(CCc2ccccc2)OC1=O)c1cccc(NS(=O)(=O)c2ccc(C(F)(F)F)cn2)c1 (mixture of isomers) [mPEG0-OCO—NH-Tipranavir] | 0.292 | 290 | 54300 | 0.0105 ± 0.00848 | 0.887 ± 0.0749 |  |  |  |  |  |  |  |  |  | 
2 | CCC(C1=C(O)CC(CCCNC(=O)OCCOC)(CCc2ccccc2)OC1=O)c1cccc(NS(=O)(=O)c2ccc(C(F)(F)F)cn2)c1 (mixture of isomers) [mPEG1-OCO—NH-Tipranavir] | 0.188 | 120 | 49500 | 0.0145 ± 0.000403 | 0.85 ± 0.184 |  |  |  |  |  |  |  |  |  | 
3 | CCC(C1=C(O)CC(CCCNC(=O)OCCOCCOCCOC)(CCc2ccccc2)OC1=O)c1cccc(NS(=O)(=O)c2ccc(C(F)(F)F)cn2)c1 (mixture of isomers) [mPEG3-OCO—NH-Tipranavir] | 0.617 | 870 | 67600 | 0.0292 ± 0.000428 | 0.816 ± 0.0104 |  |  |  |  |  |  |  |  |  | 
4 | CCC(C1=C(O)CC(CCCNC(=O)OCCOCCOCCOCCOCCOC)(CCc2ccccc2)OC1=O)c1cccc(NS(=O)(=O)c2ccc(C(F)(F)F)cn2)c1 (mixture of isomers) [mPEG5-OCO—NH-Tipranavir] | 0.462 | 1060 | 86100 | 0.0304 ± 0.000274 | highly unbound |  |  |  |  |  |  |  |  |  | 
5 | C[S+](C)[O-] [DMSO, reference compound] |  |  |  |  |  | >2.0 | >2.0 | 0.06 | 0.19 |  |  |  |  |  | 
6 | COCCOCCOCCOCCOCCOC(=O)N[C@@H](C(=O)NC(Cc1ccccc1)[C@@H](O)CN(Cc1ccc(-c2ccccn2)cc1)NC(=O)[C@H](NC(=O)OCCOCCOCCOCCOCCOC)C(C)(C)C)C(C)(C)C (some centres unmarked) [di-mPEG5-Atazanavir] | 17.3 | 1110 |  | 0.537 ± 0.0412 | highly unbound |  |  |  |  | >200000 | >10.8 | 0.06 | 0.824 ± 0.950 | > 50000 | > 50000
7 | COCCOCCOCCOCCOCCOCCOC(=O)N[C@@H](C(=O)NC(Cc1ccccc1)[C@@H](O)CN(Cc1ccc(-c2ccccn2)cc1)NC(=O)[C@H](NC(=O)OCCOCCOCCOCCOCCOCCOC)C(C)(C)C)C(C)(C)C (some centres unmarked) [di-mPEG6-Atazanavir] | 15.6 | 2540 |  | 0.868 ± 0.0163 | highly unbound |  |  |  |  | 158600 |  |  |  |  | 
8 | COCCOCCOCCOCCOCCOCCOCCOC(=O)N[C@@H](C(=O)NC(Cc1ccccc1)[C@@H](O)CN(Cc1ccc(-c2ccccn2)cc1)NC(=O)[C@H](NC(=O)OCCOCCOCCOCCOCCOCCOCCOC)C(C)(C)C)C(C)(C)C (some centres unmarked) [di-mPEG7-Atazanavir] | 10.9 | 8350 |  | highly unbound | highly unbound |  |  |  |  | >200000 | >3.6 | 0.06 |  | > 50000 | > 50000
9 | CCCC1(CCc2ccccc2)CC(O)=C(C(CC)c2cccc(N(CCOCCOCCOC)S(=O)(=O)c3ccc(C(F)(F)F)cn3)c2)C(=O)O1 (centres unmarked) [mPEG3-amide-Tipranavir] |  | 80 |  | 0.014 ± 0.00166 | 0.73 ± 0.0153 |  |  |  |  | 1300 |  |  | 1.66 ± 1.24 | 2500 | ~2100
10 | CCCC1(CCc2ccccc2)CC(O)=C(C(CC)c2cccc(N(CCOCCOCCOCCOCCOC)S(=O)(=O)c3ccc(C(F)(F)F)cn3)c2)C(=O)O1 (centres unmarked) [mPEG5-amide-Tipranavir] |  | > 200000 |  | 0.0308 ± 0.00399 | highly unbound |  |  |  |  | 12800 |  |  | 3.62 ± 0.527 | 1700 | 2800
11 | CCC[C@@]1(CCc2ccccc2)CC(O)=C([C@H](CC)c2cccc(N(CCOCCOCCOCCOCCOCCOCCOC)S(=O)(=O)c3ccc(C(F)(F)F)cn3)c2)C(=O)O1 [mPEG7-amide-Tipranavir] | 12.2 | > 200000 |  | 0.029 ± 0.00436 | highly unbound |  |  |  |  | 14500 |  |  | 0.162 ± 0.343 | 2600 | ~4000
12 | Triton X-100 [reference compound] |  |  |  |  |  | 0.003 | 0.002 | 0.0009 | 0.0006 |  |  |  |  |  | 
